According to ChEMBL document CHEMBL1201862, “PubChem BioAssay data set” (2004):
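Briefly, cells in 96-well plates were exposed to five compound concentrations for 48 h, and endpoints were estimated by linear interpolation. GI50 = concentration required for 50% inhibition of growth.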 Active and inactive are the calls of the source. Rule as the data show it: active = GI50 up to about 1.1 µM and inactive = higher.

Legend:
Experiment in all cases: growth of human tumour cells (NCI), 48 h
RXF 393 = test system: RXF 393
NCI-H23 = test system: NCI-H23
PC-3 = test system: PC-3
MCF7 = test system: MCF7
ACHN = test system: ACHN
SNB-19 = test system: SNB-19
CAKI-1 = test system: CAKI-1
A498 = test system: A498
MDA-MB-435 = test system: MDA-MB-435
HOP-92 = test system: HOP-92
HL-60 = test system: HL-60
MOLT-4 = test system: MOLT-4
EKVX = test system: EKVX
UO-31 = test system: UO-31
NCI-H226 = test system: NCI-H226
Malme-3M = test system: Malme-3M
SF-295 = test system: SF-295
SK-MEL-28 = test system: SK-MEL-28
HCC 2998 = test system: HCC 2998
OVCAR-4 = test system: OVCAR-4

| Compound | GI50 (RXF 393) | GI50 (NCI-H23) | GI50 (PC-3) | GI50 (MCF7) | GI50 (ACHN) | GI50 (SNB-19) | GI50 (CAKI-1) | GI50 (A498) | GI50 (MDA-MB-435) | GI50 (HOP-92) | GI50 (HL-60) | GI50 (MOLT-4) | GI50 (EKVX) | GI50 (UO-31) | GI50 (NCI-H226) | GI50 (Malme-3M) | GI50 (SF-295) | GI50 (SK-MEL-28) | GI50 (HCC 2998) | GI50 (OVCAR-4) |
| --- | --- | --- | --- | --- | --- | --- | --- | --- | --- | --- | --- | --- | --- | --- | --- | --- | --- | --- | --- | --- |
| COc1cc(N(CCC#N)CCC#N)ccc1/C=C1\SC(=S)NC1=O | > 100 µM (inactive) | > 100 µM (inactive) | > 100 µM (inactive) | > 100 µM (inactive) | > 100 µM (inactive) | > 100 µM (inactive) | > 100 µM (inactive) | > 100 µM (inactive) | > 100 µM (inactive) | > 100 µM (inactive) | > 100 µM (inactive) | > 100 µM (inactive) | > 100 µM (inactive) | > 100 µM (inactive) | > 100 µM (inactive) | > 100 µM (inactive) | > 100 µM (inactive) | > 100 µM (inactive) | > 100 µM (inactive) | > 100 µM (inactive) |
| O[C@H]1[C@H]2[C@H](O)C[C@H](CCOCc3ccccc3)CN2C[C@H]1O | > 100 µM (inactive) | > 100 µM (inactive) | > 100 µM (inactive) | > 100 µM (inactive) | > 100 µM (inactive) | > 100 µM (inactive) | > 100 µM (inactive) | > 100 µM (inactive) | > 100 µM (inactive) | > 100 µM (inactive) | > 100 µM (inactive) | > 100 µM (inactive) | > 100 µM (inactive) | > 100 µM (inactive) | > 100 µM (inactive) | > 100 µM (inactive) | > 100 µM (inactive) | > 100 µM (inactive) | > 100 µM (inactive) | > 100 µM (inactive) |
| N#CCN(Cc1ccccc1)[C@H]1CCC[C@]1(O)/C=C/c1ccc2c(c1)OCO2 | 23.6 µM (inactive) | 24.9 µM (inactive) | 16.8 µM (inactive) | 18.7 µM (inactive) | 42 µM (inactive) | 25.2 µM (inactive) | 36.1 µM (inactive) | 37.2 µM (inactive) | 20 µM (inactive) | 18.2 µM (inactive) | 16.2 µM (inactive) | 21.7 µM (inactive) | 76.9 µM (inactive) | 27.2 µM (inactive) | 18.4 µM (inactive) | 17.6 µM (inactive) | 16.4 µM (inactive) | 17.3 µM (inactive) | 18.4 µM (inactive) | 29 µM (inactive) |
| CNC(=O)Nc1ccccc1 | > 100 µM (inactive) | > 100 µM (inactive) | > 100 µM (inactive) | > 100 µM (inactive) | > 100 µM (inactive) | > 100 µM (inactive) | > 100 µM (inactive) | > 100 µM (inactive) | > 100 µM (inactive) | > 100 µM (inactive) | > 100 µM (inactive) | > 100 µM (inactive) | > 100 µM (inactive) | > 100 µM (inactive) | > 100 µM (inactive) | > 100 µM (inactive) | > 100 µM (inactive) | > 100 µM (inactive) | > 100 µM (inactive) | > 100 µM (inactive) |
| Cc1ccc(/C=C/C(=O)c2c([O-])on[n+]2-c2ccccc2)cc1 | 1.94 µM (inactive) | 4.61 µM (inactive) | 4.72 µM (inactive) | 3.53 µM (inactive) | 1.87 µM (inactive) | 3.98 µM (inactive) | 1.98 µM (inactive) | 5.86 µM (inactive) | 2.3 µM (inactive) | 4.52 µM (inactive) | 1.47 µM (inactive) | 2.34 µM (inactive) | 3.6 µM (inactive) | 2.62 µM (inactive) | 3.79 µM (inactive) | 5.42 µM (inactive) | 7.74 µM (inactive) | 2.26 µM (inactive) | 2.01 µM (inactive) | 3.1 µM (inactive) |
| COc1cc(/C=C/c2ccc(/C=C/c3cc(OC)c(OC)c(OC)c3)cc2)cc(OC)c1OC | 6.68 µM (inactive) | 12.3 µM (inactive) | 27.5 µM (inactive) | > 100 µM (inactive) | 16.3 µM (inactive) | 13.6 µM (inactive) | 21.6 µM (inactive) | 10.5 µM (inactive) | 55.2 µM (inactive) | 15.4 µM (inactive) | > 66.5 µM (inactive) | > 100 µM (inactive) | > 46.9 µM (inactive) | 36.1 µM (inactive) | 20.3 µM (inactive) | 20.3 µM (inactive) | 10.9 µM (inactive) | 26.1 µM (inactive) | 22.2 µM (inactive) | 3.98 µM (inactive) |
| N#Cc1c(N)nc2[nH]nc(N)c2c1-c1ccc(Cl)cc1 | 2.11 µM (inactive) | 3.76 µM (inactive) | 2.65 µM (inactive) | 3.03 µM (inactive) | 2.49 µM (inactive) | 29.2 µM (inactive) | 3.02 µM (inactive) | 0.656 µM (active) | 5.85 µM (inactive) | 1.81 µM (inactive) | 9.75 µM (inactive) | 2.54 µM (inactive) | 5.21 µM (inactive) | 2.42 µM (inactive) | 5.41 µM (inactive) | 2.1 µM (inactive) | 6.03 µM (inactive) | 6.95 µM (inactive) | 10 µM (inactive) | 8.95 µM (inactive) |
| COc1cc(C2c3cc4c(cc3OC(N3CCNCC3)C2C)OCO4)cc(OC)c1OC (stereo not given) | 0.3 µM (active) | 1.09 µM (active) | 0.456 µM (active) | 0.385 µM (active) | 1.75 µM (inactive) | 0.912 µM (active) | 0.476 µM (active) | 0.726 µM (active) | 0.269 µM (active) | 0.748 µM (active) | 0.288 µM (active) | 1.16 µM (inactive) | 6.38 µM (inactive) | 1.69 µM (inactive) | 1.83 µM (inactive) | 0.294 µM (active) | 0.234 µM (active) | 2.85 µM (inactive) | 2.26 µM (inactive) | 1.66 µM (inactive) |
| COc1ccc(-c2oc3c(OC)c(OC)c(OC)c(O)c3c(=O)c2OC)cc1OC | 17.4 µM (inactive) | 31.1 µM (inactive) | 18 µM (inactive) | 3.97 µM (inactive) | 25 µM (inactive) | 63.4 µM (inactive) | 40.4 µM (inactive) | 19.9 µM (inactive) | 4.69 µM (inactive) | 0.243 µM (active) | 6.81 µM (inactive) | 15.5 µM (inactive) | 37.6 µM (inactive) | 9.06 µM (inactive) | 20.7 µM (inactive) | 46.8 µM (inactive) | 22 µM (inactive) | 32.2 µM (inactive) | 19.3 µM (inactive) | 26.5 µM (inactive) |
| CC1=CC[C@H](C(C)C)C(C(O)[C@@H](C)O[Si](c2ccccc2)(c2ccccc2)C(C)(C)C)C1=O (stereo not given in full) | 13.5 µM (inactive) | 16.6 µM (inactive) | 14 µM (inactive) | 15.8 µM (inactive) | 15.6 µM (inactive) | 17.3 µM (inactive) | 14 µM (inactive) | 18.6 µM (inactive) | 21.4 µM (inactive) | 20.8 µM (inactive) | 16.9 µM (inactive) | 7.36 µM (inactive) | 13.3 µM (inactive) | 15.2 µM (inactive) | 20 µM (inactive) | 28.8 µM (inactive) | 15 µM (inactive) | 32.3 µM (inactive) | 12.7 µM (inactive) | 15.5 µM (inactive) |
